# Assays:
# [1] = target: Eukaryotic translation initiation factor 2-alpha kinase 1 (Homo sapiens) (UniProt Q9BQI3); details: Compound concentration 100.0 nM
# [2] = target: Glycogen synthase kinase-3 beta (Homo sapiens) (UniProt P49841); details: Compound concentration 100.0 nM
# [3] = target: Tyrosine-protein kinase receptor UFO (Homo sapiens) (UniProt P30530); details: Compound concentration 100.0 nM
# [4] = target: Cyclin-dependent kinase 19 (Homo sapiens) (UniProt Q9BWU1); details: Compound concentration 100.0 nM
# [5] = target: Cyclin-dependent kinase 5 (Homo sapiens) (UniProt Q00535); details: Compound concentration 100.0 nM
# Chain of Cyclin-dependent kinase 5 (Homo sapiens) (Q00535 whole entry, looked up): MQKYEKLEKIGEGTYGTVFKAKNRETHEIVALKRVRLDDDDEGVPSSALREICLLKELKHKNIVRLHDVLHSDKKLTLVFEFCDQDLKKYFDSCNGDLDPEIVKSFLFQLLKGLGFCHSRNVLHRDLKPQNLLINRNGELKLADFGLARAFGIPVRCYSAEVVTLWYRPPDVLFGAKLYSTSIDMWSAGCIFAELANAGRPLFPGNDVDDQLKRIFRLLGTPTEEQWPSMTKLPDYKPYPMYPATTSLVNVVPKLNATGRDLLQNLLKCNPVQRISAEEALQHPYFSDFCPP
# [6] = tested on: Epidermal growth factor receptor (Homo sapiens), P00533 [L858R]; details: Compound concentration 100.0 nM
# [7] = target: Mitogen-activated protein kinase 9 (Homo sapiens) (UniProt P45984); details: Compound concentration 100.0 nM
# [8] = target: Serine/threonine-protein kinase TNNI3K (Homo sapiens) (UniProt Q59H18); details: Compound concentration 100.0 nM
# [9] = target: Receptor tyrosine-protein kinase erbB-4 (Homo sapiens) (UniProt Q15303); details: Compound concentration 100.0 nM
# [10] = target: Serine/threonine-protein kinase Nek11 (Homo sapiens) (UniProt Q8NG66); details: Compound concentration 100.0 nM
# [11] = target: 1-phosphatidylinositol 3-phosphate 5-kinase (Homo sapiens) (UniProt Q9Y2I7); details: Compound concentration 100.0 nM
# [12] = target: Serine/threonine-protein kinase Sgk3 (Homo sapiens) (UniProt Q96BR1); details: Compound concentration 100.0 nM
# [13] = target: Serine/threonine-protein kinase TAO1 (Homo sapiens) (UniProt Q7L7X3); details: Compound concentration 100.0 nM
# Chain of Serine/threonine-protein kinase TAO1 (Homo sapiens) (Q7L7X3 whole entry): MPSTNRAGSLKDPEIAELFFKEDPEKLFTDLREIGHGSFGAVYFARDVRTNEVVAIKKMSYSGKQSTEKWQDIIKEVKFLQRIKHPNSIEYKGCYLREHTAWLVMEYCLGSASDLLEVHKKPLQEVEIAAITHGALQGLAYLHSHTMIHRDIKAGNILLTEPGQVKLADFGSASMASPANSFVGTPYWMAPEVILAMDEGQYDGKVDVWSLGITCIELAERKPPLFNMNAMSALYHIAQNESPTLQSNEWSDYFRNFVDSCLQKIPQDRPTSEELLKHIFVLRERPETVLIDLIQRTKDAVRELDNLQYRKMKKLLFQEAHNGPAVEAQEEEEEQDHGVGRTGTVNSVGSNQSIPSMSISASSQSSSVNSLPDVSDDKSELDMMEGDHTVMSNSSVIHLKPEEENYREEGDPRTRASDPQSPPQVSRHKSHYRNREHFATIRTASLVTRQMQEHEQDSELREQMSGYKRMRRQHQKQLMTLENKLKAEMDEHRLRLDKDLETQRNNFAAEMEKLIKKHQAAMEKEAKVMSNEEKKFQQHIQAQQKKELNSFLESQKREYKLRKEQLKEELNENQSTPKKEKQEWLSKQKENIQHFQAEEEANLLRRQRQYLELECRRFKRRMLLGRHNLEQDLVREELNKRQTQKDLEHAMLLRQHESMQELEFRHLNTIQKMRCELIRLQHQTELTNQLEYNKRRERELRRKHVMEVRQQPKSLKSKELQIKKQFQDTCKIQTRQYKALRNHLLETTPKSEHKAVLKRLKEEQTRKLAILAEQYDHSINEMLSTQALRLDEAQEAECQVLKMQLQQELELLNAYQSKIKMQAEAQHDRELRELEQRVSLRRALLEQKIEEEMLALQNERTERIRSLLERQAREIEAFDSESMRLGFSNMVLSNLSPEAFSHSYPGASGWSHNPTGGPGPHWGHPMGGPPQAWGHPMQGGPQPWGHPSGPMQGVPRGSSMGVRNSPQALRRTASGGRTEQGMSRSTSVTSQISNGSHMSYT
# [14] = target: Wee1-like protein kinase 2 (Homo sapiens) (UniProt P0C1S8); details: Compound concentration 100.0 nM
# Chain of Wee1-like protein kinase 2 (Homo sapiens) (P0C1S8 whole entry, looked up): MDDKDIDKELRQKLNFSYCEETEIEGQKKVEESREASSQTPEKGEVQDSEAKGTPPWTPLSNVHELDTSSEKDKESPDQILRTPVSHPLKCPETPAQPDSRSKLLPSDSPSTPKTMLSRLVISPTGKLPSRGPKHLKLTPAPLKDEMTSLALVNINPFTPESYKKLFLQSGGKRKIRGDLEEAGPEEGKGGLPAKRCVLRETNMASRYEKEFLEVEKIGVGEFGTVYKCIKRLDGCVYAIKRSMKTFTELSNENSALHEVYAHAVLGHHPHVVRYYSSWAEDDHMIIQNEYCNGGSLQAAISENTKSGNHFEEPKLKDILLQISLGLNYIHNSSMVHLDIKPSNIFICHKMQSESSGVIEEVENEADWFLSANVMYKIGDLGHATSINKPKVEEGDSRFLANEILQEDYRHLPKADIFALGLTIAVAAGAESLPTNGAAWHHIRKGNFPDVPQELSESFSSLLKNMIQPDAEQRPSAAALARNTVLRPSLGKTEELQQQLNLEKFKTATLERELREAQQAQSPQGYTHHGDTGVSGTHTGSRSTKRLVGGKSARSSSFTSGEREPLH
# [15] = target: Fibroblast growth factor receptor 2 (Homo sapiens) (UniProt P21802); details: Compound concentration 100.0 nM
# Chain of Fibroblast growth factor receptor 2 (Homo sapiens) (P21802 22-821 limits assumed): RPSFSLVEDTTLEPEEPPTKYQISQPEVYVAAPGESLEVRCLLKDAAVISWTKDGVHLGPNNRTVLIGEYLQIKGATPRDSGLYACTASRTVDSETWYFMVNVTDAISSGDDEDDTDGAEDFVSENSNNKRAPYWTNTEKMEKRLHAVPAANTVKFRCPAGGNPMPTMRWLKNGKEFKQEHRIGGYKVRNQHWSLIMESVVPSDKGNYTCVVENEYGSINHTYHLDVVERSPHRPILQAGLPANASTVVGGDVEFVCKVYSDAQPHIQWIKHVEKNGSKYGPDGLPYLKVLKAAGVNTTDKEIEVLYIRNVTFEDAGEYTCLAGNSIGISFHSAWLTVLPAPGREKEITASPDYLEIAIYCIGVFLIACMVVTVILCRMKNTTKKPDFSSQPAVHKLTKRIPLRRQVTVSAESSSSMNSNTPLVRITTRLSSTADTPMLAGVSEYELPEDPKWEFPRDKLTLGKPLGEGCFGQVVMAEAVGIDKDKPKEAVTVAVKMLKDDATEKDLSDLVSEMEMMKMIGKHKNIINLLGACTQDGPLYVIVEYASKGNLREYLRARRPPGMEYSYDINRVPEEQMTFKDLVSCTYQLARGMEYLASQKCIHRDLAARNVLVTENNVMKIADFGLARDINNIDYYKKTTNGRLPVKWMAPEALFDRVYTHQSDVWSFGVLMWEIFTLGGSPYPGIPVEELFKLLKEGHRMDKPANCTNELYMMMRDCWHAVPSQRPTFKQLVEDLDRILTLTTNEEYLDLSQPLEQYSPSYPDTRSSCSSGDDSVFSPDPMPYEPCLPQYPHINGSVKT
# [16] = target: Ephrin type-A receptor 4 (Homo sapiens) (UniProt P54764); details: Compound concentration 100.0 nM
# [17] = target: Ribosomal protein S6 kinase beta-1 (Homo sapiens) (UniProt P23443); details: Compound concentration 100.0 nM
# [18] = tested on: Epidermal growth factor receptor (Homo sapiens), P00533 [UNDEFINED MUTATION]; details: Compound concentration 100.0 nM
# [19] = target: Serine/threonine-protein kinase STK11 (Homo sapiens) (UniProt Q15831); details: Compound concentration 100.0 nM
# [20] = target: Dual specificity protein kinase CLK2 (Homo sapiens) (UniProt P49760); details: Compound concentration 100.0 nM
# Chain of Dual specificity protein kinase CLK2 (Homo sapiens) (P49760 whole entry, looked up): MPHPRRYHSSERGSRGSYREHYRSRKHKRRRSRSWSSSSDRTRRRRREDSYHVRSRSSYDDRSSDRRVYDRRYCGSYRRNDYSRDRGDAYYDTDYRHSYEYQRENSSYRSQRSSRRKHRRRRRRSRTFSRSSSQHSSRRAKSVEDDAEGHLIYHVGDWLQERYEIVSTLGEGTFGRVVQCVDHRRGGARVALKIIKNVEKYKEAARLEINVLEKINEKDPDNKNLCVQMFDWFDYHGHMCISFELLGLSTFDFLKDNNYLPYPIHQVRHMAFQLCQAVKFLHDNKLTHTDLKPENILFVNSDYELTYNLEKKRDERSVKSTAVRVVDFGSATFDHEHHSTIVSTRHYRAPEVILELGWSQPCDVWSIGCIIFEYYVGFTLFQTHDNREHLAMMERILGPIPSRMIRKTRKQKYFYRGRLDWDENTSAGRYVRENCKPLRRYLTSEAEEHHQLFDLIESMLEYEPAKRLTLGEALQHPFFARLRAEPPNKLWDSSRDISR
# [21] = target: Dual specificity tyrosine-phosphorylation-regulated kinase 1A (Homo sapiens) (UniProt Q13627); details: Compound concentration 100.0 nM
# [22] = target: Calcium/calmodulin-dependent protein kinase type 1D (Homo sapiens) (UniProt Q8IU85); details: Compound concentration 100.0 nM
# [23] = target: Serine/threonine-protein kinase 35 (Homo sapiens) (UniProt Q8TDR2); details: Compound concentration 100.0 nM
# [24] = target: Serine/threonine-protein kinase MRCK gamma (Homo sapiens) (UniProt Q6DT37); details: Compound concentration 100.0 nM
# [25] = target: Tyrosine-protein kinase Srms (Homo sapiens) (UniProt Q9H3Y6); details: Compound concentration 100.0 nM
# [26] = target: Serine/threonine-protein kinase N2 (Homo sapiens) (UniProt Q16513); details: Compound concentration 100.0 nM
# [27] = tested on: Tyrosine-protein kinase ABL1 (Homo sapiens), P00519 [H396P]; details: Compound concentration 100.0 nM
# [28] = target: Atypical kinase COQ8B, mitochondrial (Homo sapiens) (UniProt Q96D53); details: Compound concentration 100.0 nM
# [29] = target: 5-hydroxytryptamine receptor 2B (Homo sapiens) (UniProt P41595); details: Compound concentration 10.0 uM
# [30] = target: Mitogen-activated protein kinase 7 (Homo sapiens) (UniProt Q13164); details: Compound concentration 100.0 nM
# [31] = target: Ribosomal protein S6 kinase alpha-2 (Homo sapiens) (UniProt Q15349); details: Compound concentration 100.0 nM
# Chain of Ribosomal protein S6 kinase alpha-2 (Homo sapiens) (Q15349 whole entry): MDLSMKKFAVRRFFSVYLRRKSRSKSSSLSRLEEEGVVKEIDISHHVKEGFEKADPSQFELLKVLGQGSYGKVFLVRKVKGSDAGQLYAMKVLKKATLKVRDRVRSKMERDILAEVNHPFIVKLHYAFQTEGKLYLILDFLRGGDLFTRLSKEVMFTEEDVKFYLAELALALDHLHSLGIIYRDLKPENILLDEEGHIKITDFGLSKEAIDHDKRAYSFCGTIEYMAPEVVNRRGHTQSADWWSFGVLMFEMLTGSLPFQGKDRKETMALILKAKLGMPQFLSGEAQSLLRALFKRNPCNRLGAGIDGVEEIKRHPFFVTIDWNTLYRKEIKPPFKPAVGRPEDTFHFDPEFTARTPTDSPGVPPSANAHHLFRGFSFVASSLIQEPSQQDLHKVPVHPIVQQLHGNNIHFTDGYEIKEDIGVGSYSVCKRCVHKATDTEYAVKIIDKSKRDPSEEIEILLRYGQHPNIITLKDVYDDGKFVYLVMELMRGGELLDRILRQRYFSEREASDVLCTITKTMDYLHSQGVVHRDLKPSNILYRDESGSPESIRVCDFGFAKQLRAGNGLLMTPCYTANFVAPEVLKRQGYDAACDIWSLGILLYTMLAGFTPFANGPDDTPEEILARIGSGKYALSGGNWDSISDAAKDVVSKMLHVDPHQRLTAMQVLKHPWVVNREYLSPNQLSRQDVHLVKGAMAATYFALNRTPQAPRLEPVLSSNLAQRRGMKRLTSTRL
# [32] = target: Cyclin-dependent kinase 4 (Homo sapiens) (UniProt P11802); details: Compound concentration 100.0 nM
# [33] = target: Serine/threonine-protein kinase Sgk1 (Homo sapiens) (UniProt O00141); details: Compound concentration 100.0 nM
# [34] = target: Tyrosine-protein kinase TXK (Homo sapiens) (UniProt P42681); details: Compound concentration 100.0 nM
# [35] = target: Dual specificity testis-specific protein kinase 1 (Homo sapiens) (UniProt Q15569); details: Compound concentration 100.0 nM
# [36] = target: Cyclin-dependent kinase 17 (Homo sapiens) (UniProt Q00537); details: Compound concentration 100.0 nM
# [37] = target: D(1B) dopamine receptor (Homo sapiens, UniProt P21918); details: Compound concentration 10.0 uM
# [38] = target: Myosin-IIIb (Homo sapiens) (UniProt Q8WXR4); details: Compound concentration 100.0 nM
# [39] = target: 5'-AMP-activated protein kinase catalytic subunit alpha-2 (Homo sapiens) (UniProt P54646); details: Compound concentration 100.0 nM
# Chain of 5'-AMP-activated protein kinase catalytic subunit alpha-2 (Homo sapiens) (P54646 whole entry, looked up): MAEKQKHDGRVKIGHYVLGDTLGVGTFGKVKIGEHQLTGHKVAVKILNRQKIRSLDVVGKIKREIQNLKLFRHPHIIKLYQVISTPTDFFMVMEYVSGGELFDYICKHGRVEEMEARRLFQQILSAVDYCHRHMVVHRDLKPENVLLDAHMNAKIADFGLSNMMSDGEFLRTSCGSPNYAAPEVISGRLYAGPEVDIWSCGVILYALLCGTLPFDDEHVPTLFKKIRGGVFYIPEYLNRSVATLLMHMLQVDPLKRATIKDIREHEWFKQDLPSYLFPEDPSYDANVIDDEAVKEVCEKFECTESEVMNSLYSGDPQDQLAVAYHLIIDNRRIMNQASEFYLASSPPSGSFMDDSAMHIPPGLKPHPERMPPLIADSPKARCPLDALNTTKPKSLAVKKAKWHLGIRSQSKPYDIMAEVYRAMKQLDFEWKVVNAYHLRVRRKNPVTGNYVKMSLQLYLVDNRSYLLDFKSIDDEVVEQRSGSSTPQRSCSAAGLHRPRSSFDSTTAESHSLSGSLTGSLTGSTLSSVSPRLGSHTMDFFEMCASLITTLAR
# [40] = tested on: Mast/stem cell growth factor receptor Kit (Homo sapiens), P10721 [D816H]; details: Compound concentration 100.0 nM
# [41] = target: Serine/threonine-protein kinase DCLK1 (Homo sapiens) (UniProt O15075); details: Compound concentration 100.0 nM
# [42] = target: Ephrin type-A receptor 6 (Homo sapiens) (UniProt Q9UF33); details: Compound concentration 100.0 nM
# [43] = target: Microtubule-associated serine/threonine-protein kinase 1 (Homo sapiens) (UniProt Q9Y2H9); details: Compound concentration 100.0 nM
# [44] = target: Mitogen-activated protein kinase 11 (Homo sapiens) (UniProt Q15759); details: Compound concentration 100.0 nM
# Chain of Mitogen-activated protein kinase 11 (Homo sapiens) (Q15759 whole entry): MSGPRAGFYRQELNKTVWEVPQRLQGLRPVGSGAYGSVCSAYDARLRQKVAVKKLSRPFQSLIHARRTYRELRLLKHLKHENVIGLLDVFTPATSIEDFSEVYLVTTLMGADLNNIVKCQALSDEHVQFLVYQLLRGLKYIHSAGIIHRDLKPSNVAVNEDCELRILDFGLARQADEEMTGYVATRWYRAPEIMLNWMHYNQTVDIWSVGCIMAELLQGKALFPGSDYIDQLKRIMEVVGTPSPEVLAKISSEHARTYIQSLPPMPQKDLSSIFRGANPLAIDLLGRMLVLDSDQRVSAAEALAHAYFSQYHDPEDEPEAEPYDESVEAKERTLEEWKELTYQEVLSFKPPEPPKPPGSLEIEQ
# [45] = target: Ribosomal protein S6 kinase alpha-6 (Homo sapiens) (UniProt Q9UK32); details: Compound concentration 100.0 nM
smiles,measurement,setting,value
CCOC(=O)c1cc2cc(-c3cc(C(=O)NCc4ccc(C(=O)O)cc4)nn3C)ccc2[nH]1 [BI 4394],residual activity,[1],91%
same,residual activity,[2],95%
same,residual activity,[3],89%
same,residual activity,[4],0%
same,residual activity,[5],94%
same,residual activity,[6],91%
same,residual activity,[7],96%
same,residual activity,[8],100%
same,residual activity,[9],96%
same,residual activity,[10],77%
same,residual activity,[11],100%
same,residual activity,[12],82%
same,residual activity,[13],90%
same,residual activity,[14],100%
same,residual activity,[15],89%
same,residual activity,[16],96%
same,residual activity,[17],88%
same,residual activity,[18],100%
same,residual activity,[19],100%
same,residual activity,[20],96%
same,residual activity,[21],90%
same,residual activity,[22],100%
same,residual activity,[23],94%
same,residual activity,[24],93%
same,residual activity,[25],90%
same,residual activity,[26],86%
same,residual activity,[27],85%
same,residual activity,[28],100%
same,inhibition,[29],8.13%
same,residual activity,[30],100%
same,residual activity,[31],84%
same,residual activity,[32],82%
same,residual activity,[33],100%
same,residual activity,[34],90%
same,residual activity,[35],97%
same,residual activity,[36],100%
same,inhibition,[37],59.6%
same,residual activity,[38],84%
same,residual activity,[39],88%
same,residual activity,[40],75%
same,residual activity,[41],86%
same,residual activity,[42],94%
same,residual activity,[43],87%
same,residual activity,[44],98%
same,residual activity,[45],93%
Cn1nc(C(=O)NCc2ccc(C(=O)O)cc2)cc1-c1ccc2[nH]ccc2c1 [BI 4395],residual activity,[1],90%
same,residual activity,[2],78%
same,residual activity,[3],89%
same,residual activity,[4],100%
same,residual activity,[5],90%
same,residual activity,[6],100%
same,residual activity,[7],60%
same,residual activity,[8],100%
same,residual activity,[9],98%
same,residual activity,[10],83%
same,residual activity,[11],100%
same,residual activity,[12],96%
same,residual activity,[13],91%
same,residual activity,[14],91%
same,residual activity,[15],87%
same,residual activity,[16],100%
same,residual activity,[17],91%
same,residual activity,[18],100%
same,residual activity,[19],100%
same,residual activity,[20],100%
same,residual activity,[21],98%
same,residual activity,[22],95%
same,residual activity,[23],94%
same,residual activity,[24],100%
same,residual activity,[25],81%
same,residual activity,[26],100%
same,residual activity,[27],84%
same,residual activity,[28],100%
same,inhibition,[29],-2.75%
same,residual activity,[30],87%
same,residual activity,[31],98%
same,residual activity,[32],84%
same,residual activity,[33],88%
same,residual activity,[34],90%
same,residual activity,[35],92%
same,residual activity,[36],77%
same,inhibition,[37],73.9%
same,residual activity,[38],100%
same,residual activity,[39],91%
same,residual activity,[40],81%
same,residual activity,[41],88%
same,residual activity,[42],100%
same,residual activity,[43],100%
same,residual activity,[44],86%
same,residual activity,[45],85%
